Structures are written as SMILES.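 All cell lines were grown in 96-well plates and treated with compound for 48 hours. Abbreviation: GI50, concentration required for 50% inhibition of growth. TGI: total growth inhibition.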

In PubChem BioAssay (NCI) one finds TGI and GI50 data, which are given here for 14 compounds.

Test systems include SF-295 CNS; A549 NSCLC; OVCAR-5 ovarian; SW-620 colon; RXF 393 renal; IGROV1 ovarian; ACHN renal; HT29 colon.
Holding throughout (assay): inhibition of tumour cell growth, NCI panel, 48 h

In the case of `COC(=O)C1OC(O[C@H]2CC[C@]3(C)[C@H]4CC=C5[C@@H]6CC(C)(C)CC[C@]6(C(=O)OC6OCC(O)C(O)C6OC6OC(C)C(OC7OCC(OC8OCC(O)C(O)C8O)C(O)C7O)C(O)C6O)[C@H](O)C[C@@]5(C)[C@]4(C)CC[C@H]3C2(C)C)C(O)C(O)C1O` (stereo not given in full), the TGI is 8.66 µM with SF-295 CNS; 9.63 µM in the experiment with A549 NSCLC; 8.01 µM in the experiment with OVCAR-5 ovarian; 11.8 µM in the experiment on SW-620 colon; 25.8 µM in the experiment on RXF 393 renal; 9.34 µM with IGROV1 ovarian. The TGI in the experiment on ACHN renal stood at 11.9 µM; in the experiment on HT29 colon, 8.9 µM.

Regarding `COc1cc(C=C2C(=O)NC(=S)NC2=O)cc(OC)c1OC`, the TGI with SF-295 CNS, with A549 NSCLC, in the experiment on OVCAR-5 ovarian, with SW-620 colon, in the experiment on RXF 393 renal and in the experiment on IGROV1 ovarian was above 100 µM throughout. The TGI in the experiment with ACHN renal and in the experiment on HT29 colon was above 100 µM each time.

Regarding `Cn1ccnc1Sc1ccc(C=Nc2ccc3nc(SCC(=O)NC4CCCCC4)sc3c2)cc1[N+](=O)[O-]`, the TGI in the experiment with SF-295 CNS is 44.4 µM; in the experiment with A549 NSCLC, above 100 µM; with OVCAR-5 ovarian it was above 100 µM; with SW-620 colon it was above 100 µM; in the experiment on RXF 393 renal it was 23.4 µM; in the experiment with IGROV1 ovarian it was above 100 µM. For the same compound, the TGI with ACHN renal and in the experiment with HT29 colon was above 100 µM in each case.

For `COC(=O)c1cc(C)ccc1CC(Cc1ccc(C)cc1)C(=O)OC` (stereo not given), the TGI in the experiment with SF-295 CNS was above 100 µM; in the experiment on A549 NSCLC it was above 100 µM; in the experiment on OVCAR-5 ovarian, above 85.4 µM; with SW-620 colon, above 100 µM; in the experiment on RXF 393 renal it was 11.5 µM; with IGROV1 ovarian, above 100 µM. The results for the TGI with ACHN renal and in the experiment with HT29 colon were above 100 µM and 80.4 µM, respectively.

On to `O=C(c1ccccc1)N1C(=S)N=C(Nc2ccccc2)C1=Nc1ccccc1`, for which the TGI in the experiment on SF-295 CNS, with A549 NSCLC, with OVCAR-5 ovarian, in the experiment with SW-620 colon, with RXF 393 renal and with IGROV1 ovarian was above 100 µM each time. The TGI with ACHN renal and in the experiment with HT29 colon was above 100 µM each time.

With `c1ccc(C2=Nn3c(CCCCCCCCc4nnc5n4N=C(c4ccccc4)CS5)nnc3SC2)cc1`, the TGI is 55.3 µM in the experiment with SF-295 CNS; above 100 µM with A549 NSCLC; above 100 µM with OVCAR-5 ovarian; above 100 µM in the experiment with SW-620 colon; 67.5 µM with RXF 393 renal; above 100 µM with IGROV1 ovarian. The TGI with ACHN renal is above 100 µM; in the experiment on HT29 colon it was above 50.6 µM.

With `Cc1ccc(S(=O)(=O)NC(=O)NNc2ccc(F)cc2)cc1`, the TGI in the experiment with SF-295 CNS, in the experiment on A549 NSCLC, in the experiment on OVCAR-5 ovarian, in the experiment on SW-620 colon, in the experiment on RXF 393 renal and in the experiment with IGROV1 ovarian was above 100 µM throughout. For the same compound, the TGI in the experiment with ACHN renal and in the experiment with HT29 colon was above 100 µM each time.

As for `Cc1ccc(-c2c(C#N)c(-c3ccc([N+](=O)[O-])cc3)c(C#N)c(=O)n2NS(=O)(=O)c2ccccc2)cc1`, the TGI with SF-295 CNS, in the experiment with A549 NSCLC, in the experiment with OVCAR-5 ovarian, with SW-620 colon, in the experiment on RXF 393 renal and with IGROV1 ovarian was above 100 µM in each case. Also, the TGI in the experiment on ACHN renal and in the experiment on HT29 colon was above 100 µM throughout.

For the compound `C[C@]1(S(=O)(=O)c2ccccc2)C[C@H]2N(Cc3ccccc3)[C@@H]1CCC21OCCO1`, the TGI in the experiment on SF-295 CNS, with A549 NSCLC, with OVCAR-5 ovarian, with SW-620 colon, with RXF 393 renal and in the experiment with IGROV1 ovarian was above 100 µM in each case. The TGI in the experiment on ACHN renal and in the experiment with HT29 colon was above 100 µM each time.

As for `O=C(O)c1ccc2c(c1)CC1(C2)Cc2cc3c(cc2C1=O)CCC3` (stereo not given), the TGI in the experiment with SF-295 CNS, with A549 NSCLC, in the experiment on OVCAR-5 ovarian, in the experiment with SW-620 colon, in the experiment with RXF 393 renal and with IGROV1 ovarian was above 100 µM in each case. Also, the TGI in the experiment on ACHN renal and with HT29 colon was above 100 µM in each case.

With `CN1COCc2cc3cc4c(cc3nc21)OCCO4`, the TGI in the experiment with SF-295 CNS, in the experiment with A549 NSCLC, in the experiment with OVCAR-5 ovarian, with SW-620 colon, in the experiment on RXF 393 renal and in the experiment with IGROV1 ovarian was above 100 µM throughout. Also, the TGI with ACHN renal and with HT29 colon was above 100 µM each time.

Consider `O=C(Nc1ccc(-n2cc(-c3ccncc3)c(-c3ccc(O)c(Cl)c3)n2)cc1)Nc1cccc(Cl)c1Cl`, for which the GI50 in the experiment on SF-295 CNS is 6.13 µM; with A549 NSCLC, 9.11 µM; in the experiment on OVCAR-5 ovarian it was above 32.5 µM; in the experiment with SW-620 colon, 20.6 µM; in the experiment with RXF 393 renal, 0.973 µM; in the experiment with IGROV1 ovarian it was 14.5 µM. Moreover, the GI50 in the experiment with ACHN renal is 7.82 µM; in the experiment with HT29 colon it was 3.87 µM. Moreover, the TGI in the experiment on SF-295 CNS was above 32.5 µM; in the experiment on A549 NSCLC it was above 32.5 µM; in the experiment on OVCAR-5 ovarian it was above 32.5 µM; in the experiment on SW-620 colon it was above 32.5 µM; in the experiment with RXF 393 renal, 5.25 µM; in the experiment with IGROV1 ovarian, above 32.5 µM. Moreover, the TGI is above 32.5 µM in the experiment on ACHN renal and 10.4 µM with HT29 colon.

Consider `COc1ccc(N=Nc2c3c(c(O)c4ccccc24)CCC(C)(C)O3)cc1`, for which the TGI was 30.3 µM in the experiment with SF-295 CNS; 39 µM in the experiment on A549 NSCLC; 43.3 µM in the experiment with OVCAR-5 ovarian; above 100 µM with SW-620 colon; 34 µM with RXF 393 renal; 35.5 µM with IGROV1 ovarian. Moreover, the results for the TGI in the experiment with ACHN renal and in the experiment with HT29 colon were 32.4 µM and 27.6 µM, respectively.

As for `Cc1cc2c(nn1)-c1ccccc1C2=O`, the TGI with SF-295 CNS, with A549 NSCLC, in the experiment with OVCAR-5 ovarian, with SW-620 colon, in the experiment with RXF 393 renal and in the experiment with IGROV1 ovarian was above 10 µM in each case. The TGI with ACHN renal and with HT29 colon was above 10 µM in each case.
